The results in this text go back to article PMC4183613 (Journal of the American Chemical Society, 2014).

pKi: −log10 of the molar value.

Test [1] has as its target polycomb repressor complex 2 (PRC2) (human (purified from HeLa cells)) (UniProt Q15910).
Test [2] concerns the target T1, PRC2 (Homo sapiens, UniProt Q15910). The test can be described thus: PRC2 inhibition, scintillation methyltransferase assay with H3. The test is classed as biochemical. The settings on record: peptide 50 μM; substrate peptide 20 μM; 3H-SAM scintillation assay.
Test [3] has as its target T1, PRC2. Format: biochemical. The settings on record: mononucleosome substrates; Figure 2C.
The target of test [4] is polycomb repressor complex 2 (PRC2) (human (purified from HeLa cells)) (UniProt Q15910). The source holds these as a separate data set.
Test [5] has the same target. Kind of test: methyltransferase inhibition kinetics.

T1 sequence (Q15910 whole entry): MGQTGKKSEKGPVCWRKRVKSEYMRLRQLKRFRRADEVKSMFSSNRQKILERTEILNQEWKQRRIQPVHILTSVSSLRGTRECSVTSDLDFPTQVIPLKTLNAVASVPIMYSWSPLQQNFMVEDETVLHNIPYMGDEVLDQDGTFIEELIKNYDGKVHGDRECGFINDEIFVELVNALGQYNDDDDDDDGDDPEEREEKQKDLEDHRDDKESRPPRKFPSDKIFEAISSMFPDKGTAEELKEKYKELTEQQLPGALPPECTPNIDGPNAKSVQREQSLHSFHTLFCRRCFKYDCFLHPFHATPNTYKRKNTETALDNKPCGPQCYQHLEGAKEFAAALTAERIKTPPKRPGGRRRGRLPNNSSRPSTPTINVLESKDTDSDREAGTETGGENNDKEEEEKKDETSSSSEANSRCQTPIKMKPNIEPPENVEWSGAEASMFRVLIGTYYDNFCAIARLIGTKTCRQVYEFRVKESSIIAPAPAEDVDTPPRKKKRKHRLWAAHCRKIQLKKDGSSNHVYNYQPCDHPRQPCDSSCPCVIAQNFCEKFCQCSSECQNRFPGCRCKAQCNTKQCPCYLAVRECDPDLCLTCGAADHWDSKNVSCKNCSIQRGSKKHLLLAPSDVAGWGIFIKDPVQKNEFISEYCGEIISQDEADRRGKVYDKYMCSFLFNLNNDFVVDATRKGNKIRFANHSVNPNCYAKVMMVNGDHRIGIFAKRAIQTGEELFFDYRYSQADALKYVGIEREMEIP
T1 sequence (O75530 whole entry partner): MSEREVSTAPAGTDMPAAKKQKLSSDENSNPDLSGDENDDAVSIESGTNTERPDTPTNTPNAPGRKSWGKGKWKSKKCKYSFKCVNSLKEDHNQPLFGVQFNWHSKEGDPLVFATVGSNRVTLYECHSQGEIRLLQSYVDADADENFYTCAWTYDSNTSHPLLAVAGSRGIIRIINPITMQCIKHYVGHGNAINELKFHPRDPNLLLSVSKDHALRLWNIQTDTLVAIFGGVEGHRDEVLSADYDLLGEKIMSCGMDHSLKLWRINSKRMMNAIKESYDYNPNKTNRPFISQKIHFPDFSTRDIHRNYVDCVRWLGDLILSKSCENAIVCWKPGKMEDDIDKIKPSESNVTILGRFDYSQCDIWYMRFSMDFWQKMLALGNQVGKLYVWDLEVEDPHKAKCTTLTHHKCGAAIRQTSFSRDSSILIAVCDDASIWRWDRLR
T1 sequence (Q15022 whole entry partner): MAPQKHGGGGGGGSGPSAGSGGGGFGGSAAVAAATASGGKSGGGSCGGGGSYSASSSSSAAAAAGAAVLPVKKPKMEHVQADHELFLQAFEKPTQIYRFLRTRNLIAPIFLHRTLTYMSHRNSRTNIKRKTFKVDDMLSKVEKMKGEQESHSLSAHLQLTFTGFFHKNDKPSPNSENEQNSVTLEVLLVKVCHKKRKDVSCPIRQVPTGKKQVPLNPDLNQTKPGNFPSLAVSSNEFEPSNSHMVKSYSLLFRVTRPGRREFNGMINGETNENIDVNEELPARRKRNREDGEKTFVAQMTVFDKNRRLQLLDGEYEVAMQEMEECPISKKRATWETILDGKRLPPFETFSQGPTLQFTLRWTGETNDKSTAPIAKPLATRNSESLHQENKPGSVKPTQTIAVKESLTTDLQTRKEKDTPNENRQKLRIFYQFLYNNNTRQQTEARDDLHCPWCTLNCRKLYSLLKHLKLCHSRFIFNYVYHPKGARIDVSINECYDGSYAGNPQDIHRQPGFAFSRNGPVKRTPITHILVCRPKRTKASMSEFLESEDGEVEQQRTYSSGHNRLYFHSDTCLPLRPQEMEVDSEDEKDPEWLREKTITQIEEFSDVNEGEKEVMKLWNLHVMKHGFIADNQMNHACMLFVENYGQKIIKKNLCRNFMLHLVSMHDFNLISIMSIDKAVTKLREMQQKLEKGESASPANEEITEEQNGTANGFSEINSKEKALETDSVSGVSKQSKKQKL
T1 sequence (Q09028 whole entry partner): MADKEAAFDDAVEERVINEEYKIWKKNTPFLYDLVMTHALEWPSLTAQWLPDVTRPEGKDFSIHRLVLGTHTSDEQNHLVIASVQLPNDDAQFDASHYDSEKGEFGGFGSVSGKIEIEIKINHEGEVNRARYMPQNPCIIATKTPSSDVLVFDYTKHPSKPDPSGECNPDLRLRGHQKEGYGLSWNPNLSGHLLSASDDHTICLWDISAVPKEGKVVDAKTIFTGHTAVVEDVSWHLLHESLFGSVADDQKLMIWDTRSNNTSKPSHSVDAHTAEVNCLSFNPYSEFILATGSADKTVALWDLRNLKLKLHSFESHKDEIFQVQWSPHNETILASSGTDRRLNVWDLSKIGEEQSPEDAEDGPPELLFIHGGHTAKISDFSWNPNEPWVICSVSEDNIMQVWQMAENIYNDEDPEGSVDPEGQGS

Consider “H3.3(23-34) peptide 18 (trifluoro-methionine at residue 27)”, for which, in test [1], the IC50 of inhibition of PRC2 methyltransferase activity (Figure S2A) stood at 11000 nM.

As for KAARXSAPSTGG [compound 7], on PRC2 [2], the “inhibition of PRC2 methyltransferase activity, in words” value is “did not provide measurable inhibition”.

For the substance KAARXSAPSTGG [compound 8], the “inhibition of PRC2 methyltransferase activity, in words” value at PRC2 [2] is recorded as “did not provide measurable inhibition”.

With KAARXSAPSTGG [compound 17], the “inhibition of PRC2 methyltransferase activity, in words” value at PRC2 [2] is “abolished inhibition”.

With H3 1-10-GGG-H3 21-37 [compound 39], the “inhibition by bitopic constructs, in words” value on PRC2 [3] was “outperformed longer linkers”.

In the case of “H3K27M mutant mononucleosome (from UniProt P84243 1-136) (complex)”, in test [4], the IC50 of inhibition of PRC2 methylation of mononucleosome substrates was determined as 2.6 nM. Further, the pKi (commonly the negative decadic logarithm of the Ki, by convention in mol/L) in test [5] is 8.68.

Turning to KAARXSAPSTGG [compound 16], at PRC2 [2], the “inhibition of PRC2 methyltransferase activity, in words” value was “modest loss of inhibition”.

For the substance KAARXSAPSTGG [compound 5], at PRC2 [2], the “inhibition of PRC2 methyltransferase activity, in words” value is listed as “modest loss in activity”.

KAARXSAPSTGG [compound 4]: the “inhibition of PRC2 methyltransferase activity, in words” value against PRC2 [2] was “did not provide measurable inhibition”.

Regarding KAARXSAPSTGG [compound 3], the “inhibition of PRC2 methyltransferase activity, in words” value on PRC2 [2] is on record as “complete inhibition”.
